Assays:
Experiment in all cases: Histone peptide microarray
Format in all cases: binding, human
AIRE (PP) = conditions: GST-tagged AIRE (PP); sheet Array Heatmap; each array performed twice, total n = 4
From the text: (§1) To more comprehensively define the histone interactions of the 31 PHD readers identified from the domain microarray analyses, we probed each on an alternate microarray platform containing a library of 293 synthetic histone peptides with single or combinatorial PTMs (Additional file 2: Figure S4 and Additional file 3: Table S2).
(§2) The 31 GST-tagged PHD readers identified in the PHD finger domain array were expressed and purified as previously. Histone peptide arrays and peptide pulldown assays were conducted as recently described (specifically, the optimized protocol from Petell et al. for the former).
(§3) Supplementary file 13072_2020_328_MOESM3_ESM.xlsx: Additional file 3: Table S2. […] Excel Tab Peptide List is a compiled list of the entire 293 histone peptide library with amino acid sequence ranges. […] Each number corresponds to the peptide number designated in Peptide List. Excel Tab Average Signals is a compiled set of binding data: chromatin reader at 0.5 μM vs. entire 293 peptide library. Data is presented as the average and standard deviation of 4 replicates. The average signals are colored to indicate signal intensity with green being strong and white being weak/low. […] Key: red= stronger relative binding; blue = weaker relative binding. Excel Tab Array info summary is a table summarizing the domains, sequence coverage, array signal range, and noise for each of the GST-tagged readers assayed on the peptide microarrays.

BAZ2B = conditions: GST-tagged BAZ2B; sheet Array Heatmap; each array performed twice, total n = 4
From the text: as §1, §2, §3

BPTF (PB) = conditions: GST-tagged BPTF (PB = PHD + Bromodomain); sheet Array Heatmap; each array performed twice, total n = 4
From the text: as §1, §2, §3

CHD4 (PPCC) = conditions: GST-tagged CHD4 (PPCC = Dual PHD + Dual Chromodomain); sheet Array Heatmap; each array performed twice, total n = 4
From the text: as §1, §2, §3

CHD5 (PCC) = conditions: GST-tagged CHD5 (PCC = PHD + Dual Chromodomain); sheet Array Heatmap; each array performed twice, total n = 4
From the text: as §1, §2, §3

CHD5 (PPCC) = conditions: GST-tagged CHD5 (PPCC = Dual PHD + Dual Chromodomain); sheet Array Heatmap; each array performed twice, total n = 4
From the text: as §1, §2, §3

DIDO1 = conditions: GST-tagged DIDO1; sheet Array Heatmap; each array performed twice, total n = 4
From the text: as §1, §2, §3

DPF2 (PPC2W2) = conditions: GST-tagged DPF2 (PPC2W2 = Dual PHD + C2W2-type Zn-finger); sheet Array Heatmap; each array performed twice, total n = 4
From the text: as §1, §2, §3

ING1 = conditions: GST-tagged ING1; sheet Array Heatmap; each array performed twice, total n = 4
From the text: as §1, §2, §3

ING2 = conditions: GST-tagged ING2; sheet Array Heatmap; each array performed twice, total n = 4
From the text: as §1, §2, §3

ING3 = conditions: GST-tagged ING3; sheet Array Heatmap; each array performed twice, total n = 4
From the text: as §1, §2, §3

ING4 = conditions: GST-tagged ING4; sheet Array Heatmap; each array performed twice, total n = 4
From the text: as §1, §2, §3

ING5 = conditions: GST-tagged ING5; sheet Array Heatmap; each array performed twice, total n = 4
From the text: as §1, §2, §3

KDM4C (TTP) = conditions: GST-tagged KDM4C (TTP = Tandem Tudor domain + PHD); sheet Array Heatmap; each array performed twice, total n = 4
From the text: as §1, §2, §3

KDM5A (1) = conditions: GST-tagged KDM5A (1); sheet Array Heatmap; each array performed twice, total n = 4
From the text: as §1, §2, §3

KDM5A (3) = conditions: GST-tagged KDM5A (3); sheet Array Heatmap; each array performed twice, total n = 4
From the text: as §1, §2, §3

KDM5B (1) = conditions: GST-tagged KDM5B (1); sheet Array Heatmap; each array performed twice, total n = 4
From the text: as §1, §2, §3

KDM5B (3) = conditions: GST-tagged KDM5B (3); sheet Array Heatmap; each array performed twice, total n = 4
From the text: as §1, §2, §3

KDM7A = conditions: GST-tagged KDM7A; sheet Array Heatmap; each array performed twice, total n = 4
From the text: as §1, §2, §3

MLL5 = conditions: GST-tagged MLL5; sheet Array Heatmap; each array performed twice, total n = 4
From the text: as §1, §2, §3

MORC3 (CW) = conditions: GST-tagged MORC3 (CW = CW-type Zn-finger); sheet Array Heatmap; each array performed twice, total n = 4
From the text: as §1, §2, §3

PHF13 = conditions: GST-tagged PHF13; sheet Array Heatmap; each array performed twice, total n = 4
From the text: as §1, §2, §3

PHF21A = conditions: GST-tagged PHF21A; sheet Array Heatmap; each array performed twice, total n = 4
From the text: as §1, §2, §3

PHF23 = conditions: GST-tagged PHF23; sheet Array Heatmap; each array performed twice, total n = 4
From the text: as §1, §2, §3

PHF2 = conditions: GST-tagged PHF2; sheet Array Heatmap; each array performed twice, total n = 4
From the text: as §1, §2, §3

PHF8 = conditions: GST-tagged PHF8; sheet Array Heatmap; each array performed twice, total n = 4
From the text: as §1, §2, §3

PHRF1 (RP) = conditions: GST-tagged PHRF1 (RP); sheet Array Heatmap; each array performed twice, total n = 4
From the text: as §1, §2, §3

RAG2 = conditions: GST-tagged RAG2; sheet Array Heatmap; each array performed twice, total n = 4
From the text: as §1, §2, §3

TAF3 = conditions: GST-tagged TAF3; sheet Array Heatmap; each array performed twice, total n = 4
From the text: as §1, §2, §3

TRIM66 (PB) = conditions: GST-tagged TRIM66 (PB = PHD + Bromodomain); sheet Array Heatmap; each array performed twice, total n = 4
From the text: as §1, §2, §3

SP140L = conditions: GST-tagged SP140L; sheet Array Heatmap; each array performed twice, total n = 4
From the text: as §1, §2, §3

H3K4me1 + K9ac + K14ac + K18ac: H3 1-20 was tested, and the “Array Heatmap signal (histone peptide microarray)” value (“Array Heatmap signal” for short) (AIRE (PP)) was 0.4902, the “Array Heatmap signal” value (BAZ2B) was 0.6125 and the “Array Heatmap signal” value (BPTF (PB)) was 0.3783. For the same substance, the “Array Heatmap signal” value (CHD4 (PPCC)) was 0.5742, the “Array Heatmap signal” value (CHD5 (PCC)) was 0.872 and the “Array Heatmap signal” value (CHD5 (PPCC)) was 0.5902. For the same substance, the “Array Heatmap signal” value (DIDO1) was 0.6756, the “Array Heatmap signal” value (DPF2 (PPC2W2)) was 0.8362 and the “Array Heatmap signal” value (ING1) was 0.5616. For the same substance, the “Array Heatmap signal” value (ING2) was 0.6379, the “Array Heatmap signal” value (ING3) was 0.5358 and the “Array Heatmap signal” value (ING4) was 0.4842. For the same substance, the “Array Heatmap signal” value (ING5) was 0.3909, the “Array Heatmap signal” value (KDM4C (TTP)) was 0.5283 and the “Array Heatmap signal” value (KDM5A (1)) was 0.5061. The “Array Heatmap signal” value (KDM5A (3)) was 0.582, the “Array Heatmap signal” value (KDM5B (1)) was 0.6974 and the “Array Heatmap signal” value (KDM5B (3)) was 0.5937. The “Array Heatmap signal” value (KDM7A) was 0.3735, the “Array Heatmap signal” value (MLL5) was 0.5474 and the “Array Heatmap signal” value (MORC3 (CW)) was 0.6558. The “Array Heatmap signal” value (PHF13) was 0.6456, the “Array Heatmap signal” value (PHF21A) was 0.4842 and the “Array Heatmap signal” value (PHF23) was 0.5995. For the same substance, the “Array Heatmap signal” value (PHF2) was 0.5275, the “Array Heatmap signal” value (PHF8) was 0.4393 and the “Array Heatmap signal” value (PHRF1 (RP)) was 0.6901. For the same substance, the “Array Heatmap signal” value (RAG2) was 0.2881, the “Array Heatmap signal” value (TAF3) was 0.2961 and the “Array Heatmap signal” value (TRIM66 (PB)) was 0.6139.
For H3K4me3 + S10p: H3 1-20, the “Array Heatmap signal” value (AIRE (PP)) was 0.4865, the “Array Heatmap signal” value (BAZ2B) was 0.4888 and the “Array Heatmap signal” value (BPTF (PB)) was 0.4763. For the same substance, the “Array Heatmap signal” value (CHD4 (PPCC)) was 0.5979, the “Array Heatmap signal” value (CHD5 (PCC)) was 0.823 and the “Array Heatmap signal” value (DIDO1) was 0.8088. For the same substance, the “Array Heatmap signal” value (DPF2 (PPC2W2)) was 0.6728, the “Array Heatmap signal” value (ING1) was 0.7399 and the “Array Heatmap signal” value (ING2) was 0.7902. The “Array Heatmap signal” value (ING3) was 0.5974, the “Array Heatmap signal” value (ING4) was 0.5113 and the “Array Heatmap signal” value (ING5) was 0.452. The “Array Heatmap signal” value (KDM4C (TTP)) was 0.6416, the “Array Heatmap signal” value (KDM5A (1)) was 0.4961 and the “Array Heatmap signal” value (KDM5A (3)) was 0.9343. For the same substance, the “Array Heatmap signal” value (KDM5B (1)) was 0.7367, the “Array Heatmap signal” value (KDM5B (3)) was 0.6326 and the “Array Heatmap signal” value (KDM7A) was 0.6944. For the same substance, the “Array Heatmap signal” value (MLL5) was 0.8699, the “Array Heatmap signal” value (MORC3 (CW)) was 0.8974 and the “Array Heatmap signal” value (PHF13) was 0.6968. The “Array Heatmap signal” value (PHF21A) was 0.4924, the “Array Heatmap signal” value (PHF23) was 0.7051 and the “Array Heatmap signal” value (PHF2) was 0.6926. For the same substance, the “Array Heatmap signal” value (PHF8) was 0.7298, the “Array Heatmap signal” value (PHRF1 (RP)) was 0.4961 and the “Array Heatmap signal” value (RAG2) was 0.5128. For the same substance, the “Array Heatmap signal” value (SP140L) was 0.3516, the “Array Heatmap signal” value (TAF3) was 0.4497 and the “Array Heatmap signal” value (TRIM66 (PB)) was 0.6387.
